From article PMC12275099, “VX-445 (elexacaftor) inhibits chloride secretion across human bronchial epithelial cells by directly blocking KCa3.1 channels” (PNAS Nexus, 2025) come the findings set out here.

Values joined by “and” are separate entries in the source; they are usually repeats but may differ in a detail not shown here. Equal entries are not always repeated. Where two headings read alike, the source gives them in different places.

By inhibition is commonly meant the share of the control response that was lost under treatment.

Assay [1] deals with primary WT CFTR-expressing HBEs. The assay is described as follows: Ussing chamber Isc, forskolin-stimulated Cl- secretion. Format: cell-based, human. The conditions noted are these: for Isc in the presence of VX-445: single filters. From the text: Primary human bronchial epithelial cells (HBEs) were collected from unused or discarded samples from the Center for Organ Recovery and Education via the University of Pittsburgh Pulmonary, Allergy, Critical Care, and Sleep Medicine Lung Biobank and Repository. All experimental procedures involving the use of HBEs were approved by the institutional review board (IRB STUDY19090084) and the Committee for Oversight of Research and Clinical Training Involving Decedents (CORID number 451) at the University of Pittsburgh. At all times, authors were blind to the identity of HBE donors. HBEs were cultured using the Vertex method ([72]). Studies were carried out on WT CFTR HBEs from 11 ([13]) donors and homozygous F508del/F508del CFTR HBEs from five ([5]) separate donors. HBEs were plated on Costar Transwell permeable supports ([…], 6.5 mm insert, polyester membrane, Corning) and grown at an air–liquid interface for 5+ weeks in HBE differentiation medium containing 2% Ultroser-G. Basolateral media were replaced three times per week. For whole-cell patch-clamp studies, HBEs were maintained in BronchiaLife airway media (LifeLine Cell Technology, LS-1047) and plated onto poly-L-lysine-coated coverslips (see below).
Costar Transwell inserts were mounted in a modified Ussing chamber (P2300, Physiologic Instruments) and the monolayers continuously short-circuited (VCC MC8, Physiologic Instruments) by forcing the transepithelial voltage to 0 mV. Short-circuit current (Isc) measurements were taken in symmetric solutions, containing (in mM): 120 NaCl, 25 NaHCO3, 3.3 KH2PO4, 0.8 K2HPO4, 1.2 CaCl2, 1.2 MgCl2, and 10 glucose. The pH of the solution is 7.4 when gassed with 95% O2–5% CO2 at 37°C. Compounds were added cumulatively following the establishment of a new stable current response. Amiloride was added to the apical membrane, while all other compounds were added to both membranes due to their lipophilic nature. In all experiments, 10 µM amiloride was used to inhibit sodium absorption. Percent inhibition was calculated as the change in Isc (ΔIsc) between the forskolin or DCEBIO stable current level and the Isc following addition of the compound being assessed divided by the ΔIsc between the stable forskolin- or DCEBIO-induced Isc and the Isc following bumetanide addition.

In assay [2] the target is KCa2.3 (Homo sapiens, UniProt Q9UGI6). Description: Excised inside-out patch-clamp on HEK cells expressing KCa2.3. Format: biochemical. As to conditions: 10 µM; 1 µM free Ca2+; n = 4; VX-659 added subsequent to VX-445; read-out: inhibition of KCa2.3 currents. As to the method: As above, we performed excised patch-clamp recordings on HEK cells heterologously expressing KCa2.3 or KCa2.2, in order to assess the activity of C2 CFTR corrector compounds. […] In contrast, the subsequent addition of 10 µM VX-659 yielded an almost complete inhibition of KCa2.3 currents, averaging 91 ± 3% (n = 4).
HEK cells stably expressing KCa3.1 (IK1, SK4), KCa2.3 (SK3), and KCa2.2 (SK2) were generated and cultured as previously described by us ([37], [66–71]).
HEK cells expressing the channel of interest were plated onto poly-L-lysine-coated glass coverslips 1–2 days prior to patch-clamp analysis. Electrophysiological recordings in the excised, inside-out, and whole-cell patch-clamp configurations were performed as recently described ([14]). For excised patch-clamp recordings, the pipette solution contained (in mM): 140 K-gluconate, 5 KCl, 1 CaCl2, 1 MgCl2, and 10 HEPES. The pH was adjusted to 7.2 with KOH. The bath solution contained (in mM): 145 K-gluconate, 5 KCl, 1.3 MgCl2, 10 HEPES, and 1 EGTA. Sufficient CaCl2 was added to obtain the desired free Ca^2+ concentration at a pH of 7.2 (adjusted with KOH). When recording KCa3.1 channels, ATP (300 µM) was added to the bath to diminish channel rundown ([73]). All recordings were carried out at a voltage of −100 mV, referenced to the extracellular compartment, as is standard. The apparent Ki and Hill coefficient for each CFTR corrector on KCa3.1, KCa2.3, and KCa2.2 were determined during a continuous recording by step-wise addition of increasing concentrations of compound and fitting the resultant relative remaining current to a Hill equation (Prism v. 10.1.0). The zero current level was determined by the addition of a 0 Ca^2+ solution (zero-added Ca^2+ plus 1 mM EGTA) at the end of the experiment. […] Current–voltage relationships were determined by stepping from a holding potential of −80 mV to +80 mV in 20 mV increments for 400 ms. The middle 300 ms of each trace was selected to avoid any influence of capacitive transients, and average currents were calculated for each voltage via the I–V tool in Clampfit. […]

Sequence of KCa2.3 (Q9UGI6 whole entry): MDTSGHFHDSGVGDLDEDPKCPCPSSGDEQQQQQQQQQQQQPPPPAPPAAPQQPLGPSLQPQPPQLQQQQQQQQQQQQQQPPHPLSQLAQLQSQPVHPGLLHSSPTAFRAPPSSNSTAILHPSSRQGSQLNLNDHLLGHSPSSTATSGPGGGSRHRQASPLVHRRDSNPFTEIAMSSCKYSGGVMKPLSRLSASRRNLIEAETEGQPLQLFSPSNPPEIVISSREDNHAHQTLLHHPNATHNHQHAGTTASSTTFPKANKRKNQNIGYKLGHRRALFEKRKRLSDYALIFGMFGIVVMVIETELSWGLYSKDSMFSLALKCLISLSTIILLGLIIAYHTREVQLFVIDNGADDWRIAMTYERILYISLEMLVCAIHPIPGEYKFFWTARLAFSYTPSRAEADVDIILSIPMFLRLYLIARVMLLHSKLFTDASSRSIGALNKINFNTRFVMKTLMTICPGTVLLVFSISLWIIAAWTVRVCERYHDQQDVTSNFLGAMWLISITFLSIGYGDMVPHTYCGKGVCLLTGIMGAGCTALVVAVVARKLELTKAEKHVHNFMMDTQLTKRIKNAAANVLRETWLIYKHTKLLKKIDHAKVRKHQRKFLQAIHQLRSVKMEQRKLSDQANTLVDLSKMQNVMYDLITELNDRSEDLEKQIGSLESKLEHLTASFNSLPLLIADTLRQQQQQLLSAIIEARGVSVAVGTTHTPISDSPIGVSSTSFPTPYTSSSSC

For the compound `Cc1nn(C)cc1S(=O)(=O)NC(=O)c1ccc(-n2ccc(OCC(C)(C)C(F)(F)F)n2)nc1N1C[C@@H](C)CC1(C)C` [VX-445, elexacaftor], in assay [1] (5 µM VX-445, Fig 1D), the “percent inhibition of forskolin-stimulated Isc from control” value came out at 33%. Moreover, the “Isc in the presence of VX-445” value in assay [1] (Fig 1F, VX-445 10 µM after forskolin and bumetanide) was 21 and 18 and 15 and 14 and 16 and 19 and 27 and 20; in assay [1] (Fig 2B, VX-445 10 µM after forskolin), 12 and 11 and 16 and 20 and 15 and 21 and 19 and 14. Further, the inhibition at 1 µM in assay [1] (Homo sapiens, 1 µM VX-445, Fig 1D, read-out: percent inhibition of forskolin-stimulated Isc from control) came out at 0%. Further, the inhibition at 10 µM came to 47 ± 2% in assay [1] (Homo sapiens, VX-445 10 µM after VX-661 10 µM, nine filters from three donors, read-out: inhibition of forskolin-stimulated current subsequent to VX-661); 56 ± 2% in assay [1] (Homo sapiens, VX-445 10 µM, four donors, n = 13 (TRAM-34 series), read-out: inhibition of the forskolin-stimulated current); 45 ± 2% in assay [1] (Homo sapiens, VX-445 10 µM, 16 experiments from three donors (paxilline series), read-out: inhibition of the forskolin-stimulated Isc); 15 ± 5% in assay [2]. Also, in assay [1] (VX-445 10 µM, 35 filters from five donors), the “decrease of the forskolin-induced Cl- current” value is on record as 47 ± 2%. The “effect on the bumetanide-insensitive current” value in assay [1] (applied after forskolin and bumetanide, VX-445 10 µM, acetazolamide 1 µM) is reported as “had no effect”.
